Results taken from ChEMBL document CHEMBL1145442, “Multistructure 3D-QSAR studies on a series of conformationally constrained butyrophenones docked into a new homology model of the 5-HT2A receptor” (J Med Chem, 2007).

Biological target: 5-hydroxytryptamine receptor 2A (Rattus norvegicus, UniProt P14842)
Experiment: Binding affinity at rat 5HT2A receptor

Sequence of 5-hydroxytryptamine receptor 2A (P14842 whole entry): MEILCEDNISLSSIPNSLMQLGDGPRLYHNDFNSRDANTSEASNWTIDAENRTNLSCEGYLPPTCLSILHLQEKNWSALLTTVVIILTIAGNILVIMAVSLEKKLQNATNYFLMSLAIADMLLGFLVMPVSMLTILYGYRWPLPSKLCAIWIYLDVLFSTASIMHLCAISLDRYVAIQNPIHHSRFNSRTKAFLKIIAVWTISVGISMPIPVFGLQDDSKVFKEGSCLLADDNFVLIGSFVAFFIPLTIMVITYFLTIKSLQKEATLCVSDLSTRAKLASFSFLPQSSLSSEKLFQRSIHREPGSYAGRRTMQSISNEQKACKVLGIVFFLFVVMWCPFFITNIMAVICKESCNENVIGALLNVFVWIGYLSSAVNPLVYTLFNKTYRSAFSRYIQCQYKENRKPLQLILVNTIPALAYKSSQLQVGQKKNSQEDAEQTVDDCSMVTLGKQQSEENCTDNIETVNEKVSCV

| SMILES | Ki |
| --- | --- |
| O=C1CC(CN2CCN(CCCCC(=O)c3ccc(F)cc3)CC2)C(c2ccccc2)=NN1 (stereo unspecified) | 1 µM |
| O=C1CC(CN2CCC3(CC2)NCNC3=O)Cc2ccccc21 (stereo unspecified) | > 10 µM |
| COc1cc2c(cc1OC)C(=O)CC(CN1CCC3(CC1)NC(=O)NC3=O)C2 (stereo unspecified) | > 10 µM |
| O=C1c2ccoc2CCC1CCN1CCN(C(=O)c2ccc(F)cc2)CC1 (stereo unspecified) | 2 µM |
| O=C1CC(CN2CCN(CCCC(=O)c3ccc(F)cc3)CC2)C(c2ccccc2)=NN1 (stereo unspecified) | 0.275 µM |
| O=C1CC(CN2CCC(c3noc4cc(F)ccc34)CC2)C(c2ccccc2)=NN1 (stereo unspecified) | 0.0575 µM |
